Consider 1 compound from patent publication US11331290B2, “Niclosamide for the treatment of cancer metastasis” (Max-Delbrück-Centrum für Molekulare Medizin in der …, priority 2011, dated 2022).

The subject of series [1] is HCT116 cells. Briefly: Cytotoxicity (cell viability) of niclosamide. Format: cell-based. Conditions: Homo sapiens, HCT-116, 24 h, 95% CI 1.87 to 2.92 μM. As to the method: To determine an applicable niclosamide concentration, the cytotoxicity of niclosamide on HCT116 cells was analyzed. […] No change in S100A4 expression could be detected with concentrations below 1 μM niclosamide.
All calculations and statistical analyses were performed with GraphPad Prism version 4.01. Student t test was used for comparison of only two groups. One-way analysis of variance (ANOVA) was applied for comparing the control group with several treated groups followed by Bonferroni post hoc multiple comparisons. […] Kaplan-Meier analysis was used to plot overall survival and differences in curves were analyzed by Logrank test. […]
(A) Determination of the cytotoxicity of niclosamide on HCT116 cells. Cells were treated with increasing concentrations of niclosamide for 24 hours and cell viability was measured. […] S100A4 expression was determined by quantitative reverse-transcription-polymerase chain reaction (qRT-PCR) and immunoblot. […] HCT116 cells were treated with a single dose of 1 μM niclosamide for 24 hours and S100A4 expression was analyzed by qRT-PCR and immunoblot at indicated time points. […] HCT116 cells were treated daily with 1 μM niclosamide and S100A4 expression was analyzed by qRT-PCR and immunoblot. […]

In series [2] the test system is SW620, LS174T, SW480 and DLD-1 cells. Briefly: Anchorage-dependent cell proliferation (MTT). In kind it is cell-based, human. Conditions: all four cell lines, 1 μM daily. As to the method:
For cell proliferation determination of HCT116, SW620, LS174T, SW480 and DLD-1 cells 2×10^3 cells were seeded in 96-well-plates (for each day one plate) and were given 24 hours to attach to the bottom of the well. Cells were from then on treated daily with 1 μM niclosamide or the respective amount of DMSO. For determination of viable cells 3-(4,5-dimethyl-2-thiazol)-2,5-diphenyl-2H-tetrazolium bromide (MTT; Sigma) was added to a final concentration of 0.5 mg per mL and incubated for 3 hours at 37° C. and 5% CO2 in a humidified incubator. […] Crystallized MTT was resolved by 10% SDS in 10 mM HCl and the absorption was measured at 560 nm. […] The average MTT metabolisation was determined of two independent experiments each performed in triplicate.
(A) S100A4 expression under niclosamide treatment. […] S100A4 expression was analyzed with qRT-PCR and immunoblot. […] Migration rates of cells treated with 1 μM niclosamide for 24 hours were determined in a Boyden chamber assay values were normalized to solvent-treated SW620 cells. […] Invaded cells in the lower chamber were counted and normalized to solvent-treated SW620 cells. Differences in solvent vs. niclosamide-treated cells were analyzed by Student's t test. […] The amount of viable cells per well was determined by MTT assay. […] (G) Quantification of colonies formed. Number of colonies (of more than 4 cells) was counted and normalized to solvent-treated SW620 cells. […]

For series [3] the following is noted: mice chronically fed 200 mg/kg, two years observation time; cited from earlier work.

Broadly, the EC50 is the concentration giving half of the maximal effect. In series [1], `O=C(Nc1ccc([N+](=O)[O-])cc1Cl)c1cc(Cl)ccc1O` [niclosamide, 2′,5-dichloro-4′-nitrosalicylanilide] gave an EC50 of 2200 nM. Moreover, the anchorage-dependent cell proliferation entry in series [2] was “inhibited”. Moreover, the adverse effects result in series [3] is on record as “no adverse effects”.
